From PubChem BioAssay (NCI)
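Exposure lasted 48 hours, with cells grown in 96-well plates and compounds tested at five concentrations. Abbreviation: GI50, concentration required for 50% inhibition of growth. At the TGI there is no net growth.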

Tests used:
Assay in all cases: DTP human tumour cell line panel, 48 h
K-562 leukemia = test system: K-562 leukemia
A549 NSCLC = test system: A549 NSCLC
HOP-62 NSCLC = test system: HOP-62 NSCLC
MDA-MB-435 = test system: MDA-MB-435
PC-3 prostate = test system: PC-3 prostate
UACC-62 melanoma = test system: UACC-62 melanoma
SF-295 CNS = test system: SF-295 CNS
SNB-75 CNS = test system: SNB-75 CNS

OCC(O)C(O)C(O)/C=N/Nc1nc2ccccc2nc1-c1ccccc1 (stereo not given)
GI50 (K-562 leukemia): 68.9 µM | TGI (K-562 leukemia): > 100 µM | GI50 (A549 NSCLC): > 100 µM | TGI (A549 NSCLC): > 100 µM | GI50 (HOP-62 NSCLC): > 100 µM | TGI (HOP-62 NSCLC): > 100 µM | GI50 (MDA-MB-435): > 100 µM | TGI (MDA-MB-435): > 100 µM | GI50 (PC-3 prostate): 82.4 µM | TGI (PC-3 prostate): > 100 µM | GI50 (UACC-62 melanoma): 67.3 µM | TGI (UACC-62 melanoma): > 100 µM | GI50 (SF-295 CNS): > 100 µM | TGI (SF-295 CNS): > 100 µM | GI50 (SNB-75 CNS): > 100 µM | TGI (SNB-75 CNS): > 100 µM

Fc1ccc2[nH]cc(SSc3c[nH]c4ccc(F)cc34)c2c1
GI50 (K-562 leukemia): 3.89 µM | TGI (K-562 leukemia): > 100 µM | GI50 (A549 NSCLC): 4.98 µM | TGI (A549 NSCLC): 87.7 µM | GI50 (HOP-62 NSCLC): 6.33 µM | TGI (HOP-62 NSCLC): 57.2 µM | GI50 (MDA-MB-435): 4.62 µM | TGI (MDA-MB-435): 21.5 µM | GI50 (PC-3 prostate): 0.861 µM | TGI (PC-3 prostate): 12 µM | GI50 (UACC-62 melanoma): 2.83 µM | TGI (UACC-62 melanoma): 13.8 µM | GI50 (SF-295 CNS): 3.04 µM | TGI (SF-295 CNS): 11.2 µM | GI50 (SNB-75 CNS): 3.12 µM | TGI (SNB-75 CNS): 15.9 µM

COc1ccc2c(c1)/C(=N/OC(C)=O)c1c-2c(=O)[nH]c2ccccc12
GI50 (K-562 leukemia): 11.3 µM | TGI (K-562 leukemia): 28.7 µM | GI50 (A549 NSCLC): 15.8 µM | TGI (A549 NSCLC): 31.3 µM | GI50 (HOP-62 NSCLC): 18 µM | TGI (HOP-62 NSCLC): 34.4 µM | GI50 (MDA-MB-435): 17.3 µM | TGI (MDA-MB-435): 34.5 µM | GI50 (PC-3 prostate): 11.8 µM | TGI (PC-3 prostate): 26 µM | GI50 (UACC-62 melanoma): 16.6 µM | TGI (UACC-62 melanoma): 30.4 µM | GI50 (SF-295 CNS): 18.1 µM | TGI (SF-295 CNS): 48 µM | GI50 (SNB-75 CNS): 11.1 µM | TGI (SNB-75 CNS): 25.9 µM

CCNCCCn1c2c(c3ccc([N+](=O)[O-])cc3c1=O)C(=O)c1cc(OC)cnc1-2
GI50 (K-562 leukemia): 0.0522 µM | TGI (K-562 leukemia): 1.65 µM | GI50 (A549 NSCLC): 0.0776 µM | TGI (A549 NSCLC): 0.296 µM | GI50 (HOP-62 NSCLC): 0.107 µM | TGI (HOP-62 NSCLC): 1.89 µM | GI50 (MDA-MB-435): 0.133 µM | TGI (MDA-MB-435): 0.744 µM | GI50 (PC-3 prostate): 0.249 µM | TGI (PC-3 prostate): 8.67 µM | GI50 (UACC-62 melanoma): 0.0267 µM | TGI (UACC-62 melanoma): 0.168 µM | GI50 (SF-295 CNS): 0.0421 µM | TGI (SF-295 CNS): 0.496 µM | GI50 (SNB-75 CNS): 0.126 µM | TGI (SNB-75 CNS): 1.54 µM

CC(=O)OC1Oc2ccccc2-c2oc(=O)c(-c3cc4ccccc4oc3=O)cc21 (stereo not given)
GI50 (K-562 leukemia): 27.6 µM | TGI (K-562 leukemia): > 100 µM | GI50 (A549 NSCLC): 15.4 µM | TGI (A549 NSCLC): 33 µM | GI50 (HOP-62 NSCLC): 18.6 µM | TGI (HOP-62 NSCLC): 34.4 µM | GI50 (MDA-MB-435): 22.3 µM | TGI (MDA-MB-435): 79.6 µM | GI50 (PC-3 prostate): 29.1 µM | TGI (PC-3 prostate): > 100 µM | GI50 (UACC-62 melanoma): 17.4 µM | TGI (UACC-62 melanoma): 35.1 µM | GI50 (SF-295 CNS): 18.6 µM | TGI (SF-295 CNS): 41.3 µM | GI50 (SNB-75 CNS): 17.3 µM | TGI (SNB-75 CNS): 34.5 µM
